Assay results: US20260015372A1, “Organophosphorous Compounds and Uses Thereof” (priority 2022, published 2026)
“Also recorded” adds a separate entry of the source. Where two headings read alike, the source gives them in different places.

Columns and labels:
[1] = target: T1, ACHE (Homo sapiens (Human), UniProt P22303); assay: ACHE inhibition, colorimetric with substrate and Ellman's reagent; format: biochemical; conditions: for Inhibition of ACHE: [ATC] = 0.1 mM
[2] = target: T2, BCHE (Homo sapiens (Human), UniProt P06276); assay: biochemical; format: biochemical; conditions: for Mode of Inhibition: Irreversible = enzyme covalently modified
T2 sequence (P06276 29-602, species assumed): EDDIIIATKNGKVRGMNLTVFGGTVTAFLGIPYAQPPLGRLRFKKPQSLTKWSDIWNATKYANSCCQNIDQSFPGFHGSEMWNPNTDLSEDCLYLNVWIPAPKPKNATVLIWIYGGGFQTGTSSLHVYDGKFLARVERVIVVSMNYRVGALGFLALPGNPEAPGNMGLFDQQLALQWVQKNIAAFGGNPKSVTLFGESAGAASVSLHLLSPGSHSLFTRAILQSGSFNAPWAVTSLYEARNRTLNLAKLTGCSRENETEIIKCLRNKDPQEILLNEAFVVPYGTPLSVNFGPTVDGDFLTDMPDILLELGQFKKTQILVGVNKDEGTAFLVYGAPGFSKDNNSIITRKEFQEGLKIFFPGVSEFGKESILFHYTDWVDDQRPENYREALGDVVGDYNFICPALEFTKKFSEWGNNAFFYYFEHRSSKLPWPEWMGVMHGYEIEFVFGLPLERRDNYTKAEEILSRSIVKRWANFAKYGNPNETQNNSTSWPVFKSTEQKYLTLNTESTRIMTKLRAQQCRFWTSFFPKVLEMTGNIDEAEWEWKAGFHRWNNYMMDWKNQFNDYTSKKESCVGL
Procedure: The compounds referred to herein have BCHE inhibitory activity. To determine the inhibitory values, enzymes were incubated for 2 hours in the presence of varying concentrations of compound prior to activity measurements. Activity is then measured colorimetrically upon addition of substrate and Ellman's reagent.

[3] = target: serum acetylcholinesterase (Mus musculus (Mouse), UniProt P21836); assay: In vivo serum acetylcholinesterase activity; design: species or system transgenic Alzheimer's mice; conditions: 10 mg and 20 mg doses over 11 months and 13 months; listed as DB2CIPP
Chain of serum acetylcholinesterase (P21836 32-614 limits assumed): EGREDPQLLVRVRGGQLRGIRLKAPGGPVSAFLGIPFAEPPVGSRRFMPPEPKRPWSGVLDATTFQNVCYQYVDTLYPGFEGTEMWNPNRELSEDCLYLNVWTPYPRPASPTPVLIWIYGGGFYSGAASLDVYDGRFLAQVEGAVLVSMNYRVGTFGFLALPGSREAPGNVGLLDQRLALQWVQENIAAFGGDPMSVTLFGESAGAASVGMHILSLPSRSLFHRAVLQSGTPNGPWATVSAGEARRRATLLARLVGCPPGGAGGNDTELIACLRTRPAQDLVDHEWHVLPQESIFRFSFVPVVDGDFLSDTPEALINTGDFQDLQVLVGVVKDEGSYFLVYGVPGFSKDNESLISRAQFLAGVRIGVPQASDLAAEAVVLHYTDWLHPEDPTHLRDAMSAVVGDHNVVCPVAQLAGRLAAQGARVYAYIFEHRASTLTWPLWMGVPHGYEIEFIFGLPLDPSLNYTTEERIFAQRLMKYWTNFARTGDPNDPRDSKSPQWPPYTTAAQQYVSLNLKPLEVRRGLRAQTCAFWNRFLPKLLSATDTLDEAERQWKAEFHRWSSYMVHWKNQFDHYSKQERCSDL
From the text: (§1) DB2CIPP Testing Results Inhibition of BChE in brain and serum. Di-n-butyl 2 chlorophenyl phosphate (DB2CIPP) inhibits BChE in brain and serum without inhibiting AChE in serum (see FIG. 5, FIG. 7, and FIG. 8).

[4] = tested on: β-amyloid plaque; assay: In vivo β-amyloid plaque formation, immunohistochemistry; design: species or system transgenic Alzheimer's mice
From the text: Images show immunohistochemistry of 13-month transgenic Alzheimer's disease mice brains at subiculum region of hippocampus, treated with DB2CIPP and DMSO control beginning at 9 months. […] Selective inhibition of butyrylcholinesterase in the brain is widely documented as a potential treatment for Alzheimer's disease and dementia, by improving cognition and modulating neuropathological markers of the disease. As an inhibitor of butyrylcholinesterase, DB2CIPP may also be used to inhibit or slow the progression of the Alzheimer's-like symptoms seen in long COVID.

[5] = target: Aβ (1-40) peptide (Homo sapiens, UniProt P05067); assay: Thioflavin T fluorescence assay of β-amyloid peptide aggregation; format: biochemical; conditions: 30 μM peptide, 25° C., 2 hours, ThT fluorescence
Procedure: Neurotoxic plaques, i.e., aggregates of β-amyloid peptide, bind thioflavin T (ThT) and show significant fluorescence.
Aβ (1-40) peptide was solubilized in hexafluoroisopropanol (HFIP). A solution of 25 μM ThT was prepared in 0.025 M phosphate buffer, pH 6.0. Peptide was dissolved in 0.01 M PBS; 0.1M NaCl, pH7.4 to a final concentration of 30 μM. Inhibitors were prepared in methanol. The final concentration of HFIP and methanol were 2% and 10% (v/v) respectively. The control sample consisted peptide incubated in PBS/2% HFI/10% methanol without inhibitor. All samples were mixed and incubated at 25° C. for 2 hours. Fluorescence was measured by mixing 470 μL of ThT solution with 30 μL of the protein solution. Excitation and emission wavelengths were 440 nm with 5 nm slit width and 485 nm with 10 nm slit width, respectively. Biological activity was calculated as percent of inhibitory activity of inhibitor at varying concentration was calculated using the following equation: Vi=100−[(Fi−Fb)/F0]×100. The higher the Vi, the less aggregation of amyloid peptide.

[6] = target: hippocampal butyrylcholinesterase (Mus musculus (Mouse), UniProt Q03311); assay: In vivo hippocampal butyrylcholinesterase activity; design: species or system transgenic Alzheimer's mice; conditions: 10 mg and 20 mg doses over 11 months; listed as DB2CIPP
Chain of hippocampal butyrylcholinesterase (Q03311 30-603 limits assumed): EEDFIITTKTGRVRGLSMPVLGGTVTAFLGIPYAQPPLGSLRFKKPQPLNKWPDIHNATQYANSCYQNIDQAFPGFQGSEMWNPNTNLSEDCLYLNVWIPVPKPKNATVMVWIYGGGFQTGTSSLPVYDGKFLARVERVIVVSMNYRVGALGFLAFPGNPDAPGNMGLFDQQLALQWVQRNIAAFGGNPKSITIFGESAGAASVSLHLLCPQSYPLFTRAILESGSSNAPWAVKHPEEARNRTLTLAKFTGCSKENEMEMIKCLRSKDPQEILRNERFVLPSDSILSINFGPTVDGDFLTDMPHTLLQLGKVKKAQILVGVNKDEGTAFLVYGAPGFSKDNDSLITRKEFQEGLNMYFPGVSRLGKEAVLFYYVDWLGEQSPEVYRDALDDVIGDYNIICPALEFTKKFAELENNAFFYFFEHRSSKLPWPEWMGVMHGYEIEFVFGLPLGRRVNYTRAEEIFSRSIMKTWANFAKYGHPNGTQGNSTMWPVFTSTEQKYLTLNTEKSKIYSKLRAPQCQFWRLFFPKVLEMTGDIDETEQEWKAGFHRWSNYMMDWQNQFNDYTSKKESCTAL
From the text: as §1

[7] = In vivo blood brain barrier crossing; conditions: other in vivo tests
[8] = target: serum butyrylcholinesterase (Mus musculus (Mouse), UniProt Q03311); assay: In vivo serum butyrylcholinesterase activity; design: species or system transgenic Alzheimer's mice; conditions: 10 mg and 20 mg doses over 11 months and 13 months; listed as DB2CIPP
Chain of serum butyrylcholinesterase (Q03311 30-603 limits assumed): as above
From the text: as §1

[9] = target: T1, ACHE; assay: Relative Activity of ACHE, 20 μM inhibitor for 2 minutes; format: biochemical; conditions: Activity of Inhibitor incubated enzyme/Activity of unincubated enzyme
Procedure: In order to compare the relative inhibitory activity of the five compounds 27, 35, 89, 90 and 92 against BCHE and ACHE, a solution of each enzyme was incubated with 20 μM of the inhibitor for 2 minutes, and the enzyme activity determined. Table 5 lists the Relative Activity (=Activity of Inhibitor incubated enzyme/Activity of unincubated enzyme).

[10] = target: T2, BCHE; format: biochemical; conditions: 20 μM inhibitor, 2 minutes; Activity of Inhibitor incubated enzyme/Activity of unincubated enzyme
[11] = enzyme incubated 2 hours with compound
[12] = enzyme incubated 2 hours with compound, read-out: BCHE Ki ± SEM

T1 sequence (P22303 32-614): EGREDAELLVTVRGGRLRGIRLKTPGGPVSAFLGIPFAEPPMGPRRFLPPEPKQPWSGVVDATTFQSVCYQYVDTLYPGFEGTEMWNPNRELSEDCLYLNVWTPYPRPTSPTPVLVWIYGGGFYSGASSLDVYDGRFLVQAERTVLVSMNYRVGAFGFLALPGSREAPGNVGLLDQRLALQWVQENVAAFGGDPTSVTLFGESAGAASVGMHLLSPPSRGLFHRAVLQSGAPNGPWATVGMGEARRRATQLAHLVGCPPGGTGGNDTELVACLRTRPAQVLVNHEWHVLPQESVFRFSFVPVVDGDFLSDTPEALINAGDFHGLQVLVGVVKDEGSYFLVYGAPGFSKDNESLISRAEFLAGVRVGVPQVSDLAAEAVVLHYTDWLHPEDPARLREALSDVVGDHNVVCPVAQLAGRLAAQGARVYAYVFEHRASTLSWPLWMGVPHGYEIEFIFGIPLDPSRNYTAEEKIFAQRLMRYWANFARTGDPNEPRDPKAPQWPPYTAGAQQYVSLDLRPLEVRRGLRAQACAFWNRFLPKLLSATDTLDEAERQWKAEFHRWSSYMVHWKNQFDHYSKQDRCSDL

Structure (SMILES): CCCCOP(=O)(OCC)Oc1ccccc1 (racemic) [Compound 99, (±)-n-Butyl ethyl phenyl phosphate]
- Inhibition of ACHE ([1]; inhibitor 3 mM): ^f<8% inhibition at [2] = 3 mM and [ATC] = 0.1 mM.

Structure (SMILES): CCCCOP(=O)(OCCCC)Oc1ccccc1Cl [Compound 9, Di-n-butyl 2-chlorophenyl phosphate]
- IC50 [2]: 0.00069 µM
- Selectivity toward BCHE over ACHE ([2]; ACHE IC50 vs BCHE IC50): approximately 68,000 fold
- Mode of Inhibition [2]: Irreversible^g
- IC50 [2, 11]: 0.00069 µM
- Serum acetylcholinesterase activity [3]: substantially not altered; also recorded: not significantly altered
- Beta amyloid plaques immunopositive staining in the hippocampus ([4]; 10 mg or 20 mg doses over 13 months, vs untreated mice): reduced
- Inhibition of β-amyloid plaque formation ([4]; 13-month mice, subiculum region of hippocampus, treated beginning at 9 months, vs DMSO control, listed as DB2CIPP): significant inhibition
- IC50 [1]: 47 µM
- IC50 [1, 11]: 47 µM
- Inhibition of aggregation of β-amyloid peptides [5]: did not inhibit
- Inhibition of hippocampal butyrylcholinesterase activity [6]: significant inhibition
- Ability to cross the blood brain barrier (BBB) [7]: cross the blood brain barrier
- Inhibition of serum butyrylcholinesterase activity [8]: significant inhibition

Structure (SMILES): CCCCOP(=O)(OCCCC)Oc1cc(C)cc(C)c1 [Compound 27, Di-n-butyl 3,5-dimethylphenyl phosphate]
- Ki [2]: 1 µM
- Mode of Inhibition [2]: Reversible
- Relative Activity of ACHE [9]: 0.93
- Relative Activity of BCHE [10]: 0.45

Structure (SMILES): CCCCOP(=O)(OCCCC)Oc1ccc2ccccc2c1 [Compound 35, Di-n-butyl 2-napthyl phosphate]
- Ki [2]: 1.9 µM
- Mode of Inhibition [2]: Reversible
- Relative Activity of ACHE [9]: 0.84
- Relative Activity of BCHE [10]: 0.10

Structure (SMILES): CCOP(=O)(OCC)OCCCOP(=O)(OCC)OCC [Compound 53, Tetraethyl propane-1,3-diyl bisphosphate]
- IC50 [2, 11]: 8.26 µM

Structure (SMILES): CCOP(=O)(OCC)OCCCCOP(=O)(OCC)OCC [Compound 54, Tetraethyl butane-1,4-diyl bisphosphate]
- IC50 [2, 11]: 8.2 µM

Structure (SMILES): CCOP(=O)(OCC)OCCCCCOP(=O)(OCC)OCC [Compound 55, Tetraethyl pentane-1,5-diyl bisphosphate]
- IC50 [2, 11]: 35.4 µM

Structure (SMILES): CCOP(=O)(OCC)OCCCCCCOP(=O)(OCC)OCC [Compound 56, Tetraethyl hexane-1,6-diyl bisphosphate]
- Mode of Inhibition [2]: Reversible
- Ki [2, 12]: 228 µM
- Inhibition of aggregation of β-amyloid peptides [5]: significantly inhibited

Structure (SMILES): CCOP(=O)(OCC)OCCCCCCCOP(=O)(OCC)OCC [Compound 57, Tetraethyl heptane-1,7-diyl bisphosphate]
- IC50 [2, 11]: 40.1 µM

Structure (SMILES): CCOP(=O)(OCC)OCCOCCOP(=O)(OCC)OCC [Compound 58, Tetraethyl 3-oxapentane-1,5-diyl bisphosphate]
- IC50 [2, 11]: 11.1 µM

Structure (SMILES): CCCCOP(=O)(OCCCC)OCCCOP(=O)(OCCCC)OCCCC [Compound 59, Tetrabutyl propane-1,3-diyl bisphosphate]
- IC50 [2, 11]: 0.79 µM

Structure (SMILES): CCCCOP(=O)(OCCCC)OCCCCOP(=O)(OCCCC)OCCCC [Compound 60, Tetrabutyl butane-1,4-diyl bisphosphate]
- IC50 [2, 11]: 88.1 µM

Structure (SMILES): CCCCOP(=O)(OCCCC)OCCCCCOP(=O)(OCCCC)OCCCC [Compound 61, Tetrabutyl pentane-1,5-diyl bisphosphate]
- IC50 [2, 11]: 2.72 µM

Structure (SMILES): CCCCOP(=O)(OCCCC)OCCCCCCOP(=O)(OCCCC)OCCCC [Compound 62, Tetrabutyl hexane-1,6-diyl bisphosphate]
- Mode of Inhibition [2]: Reversible
- Ki [2, 12]: 4 µM
- Inhibition of aggregation of β-amyloid peptides [5]: significantly inhibited

Structure (SMILES): CCCCOP(=O)(OCCCC)OCCCCCCCOP(=O)(OCCCC)OCCCC [Compound 63, Tetrabutyl heptane-1,7-diyl bisphosphate]
- IC50 [2, 11]: 3.95 µM

Structure (SMILES): CCCCOP(=O)(OCCCC)OCCCCCCCCOP(=O)(OCCCC)OCCCC [Compound 64, Tetrabutyl octane-1,8-diyl bisphosphate]
- IC50 [2, 11]: 2.39 µM

Structure (SMILES): CCCCOP(=O)(OCCCC)OCCOCCOP(=O)(OCCCC)OCCCC [Compound 65, Tetrabutyl 3-oxapentane-1,5-diyl bisphosphate]
- IC50 [2, 11]: 31.2 µM

Structure (SMILES): CCCCOP(=O)(OCCC=CCCOP(=O)(OCCCC)OCCCC)OCCCC [Compound 66, Tetrabutyl 3-hexene-1,6-diyl bisphosphate]
- IC50 [2, 11]: 1.2 µM

Structure (SMILES): O=P(OCCCCCCOP(=O)(Oc1ccccc1)Oc1ccccc1)(Oc1ccccc1)Oc1ccccc1 [Compound 67, Tetraphenyl hexane-1,6-diyl bisphosphate]
- Mode of Inhibition [2]: Reversible
- Inhibition of aggregation of β-amyloid peptides [5]: significantly inhibited

Structure (SMILES): CCCCOP(=O)(Cc1cccc2ccccc12)OCCCC [Compound 89, Di-n-butyl 1-naphthylmethylphosphonate]
- Mode of Inhibition [2]: Irreversible^g
- Relative Activity of ACHE [9]: 0.96
- Relative Activity of BCHE [10]: 0.47

Structure (SMILES): CCCCOP(=O)(Cc1ccc2ccccc2c1)OCCCC [Compound 90, Di-n-butyl 2-naphthylmethylphosphonate]
- Mode of Inhibition [2]: Irreversible^g
- Relative Activity of ACHE [9]: 0.95
- Relative Activity of BCHE [10]: 0.45

Structure (SMILES): CCCCOP(=O)(Cc1cc(C)cc(C)c1)OCCCC [Compound 92, Di-n-butyl 3,5-dimethylbenzylphosphonate]
- Mode of Inhibition [2]: Irreversible^g
- Relative Activity of ACHE [9]: 0.99
- Relative Activity of BCHE [10]: 0.64

Structure (SMILES): COP(=O)(OC)Oc1ccccc1 [Compound 93, Dimethyl phenyl phosphate]
- Ki [2]: 1700 µM
- Ki [1]: 6500 µM

Structure (SMILES): CCOP(=O)(OCC)Oc1ccccc1 [Compound 94, Diethyl phenyl phosphate]
- Ki [2]: 55 µM
- Ki [1]: 3100 µM

Structure (SMILES): CCCOP(=O)(OCCC)Oc1ccccc1 [Compound 95, Di-n-propyl phenyl phosphate]
- Inhibition of ACHE ([1]; inhibitor 5 mM): ^b<20% Inhibition at [lc] = 5 mM and [ATC] = 0.1 mM.

Structure (SMILES): CCCCOP(=O)(OCCCC)Oc1ccccc1 [Compound 96, Di-n-butyl phenyl phosphate]
- Inhibition of ACHE ([1]; inhibitor 1 mM): ^cNo inhibition at [1d] = 1 mM and [ATC] = 0.1 mM.

Structure (SMILES): CCCCCOP(=O)(OCCCCC)Oc1ccccc1 [Compound 97, Di-n-pentyl phenyl phosphate]
- Ki [2]: 6 µM
- Mode of Inhibition [2]: ^aPartial competitive.
- Inhibition of ACHE ([1]; inhibitor 3 mM): ^d<8% Inhibition at [le] = 3 mM and [ATC] = 0.1 mM.

Structure (SMILES): O=P(Oc1ccccc1)(OC1CCCCC1)OC1CCCCC1 [Compound 98, Di-cyclohexyl phenyl phosphate]
- Ki [2]: 7 µM
- Mode of Inhibition [2]: ^aPartial competitive.
- Inhibition of ACHE ([1]; inhibitor 3 mM): ^eNo inhibition at [1f] = 3 mM and [ATC] = 0.1 mM.
